Experimental data from the Biogen ADME set (Fang et al. 2023).
≈ marks a conversion by molar mass, not a printed value.

Settings: for aqueous solubility: pH 6.8

intrinsic clearance, human liver microsomes [mL/min/kg] | intrinsic clearance, rat liver microsomes [mL/min/kg] | aqueous solubility [µg/mL] | MDR1-MDCK efflux ratio | fraction unbound, human plasma | fraction unbound, rat plasma | Structure (SMILES)
99.4 | 2230 | 13.5 (≈ 42.5 µM) | – | – | – | CCCc1cc(-c2nn3c(C4CCCC4)nnc3s2)n(C)n1
121 | 5670 | – | – | – | – | Brc1cnc(N2CCCN(c3ccccc3)CC2)nc1
10.7 | 257 | – | 15.6 | – | – | O=c1c2c(C(F)(F)F)cccc2ncn1CCc1ncc[nH]1
26.7 | 113 | – | – | – | – | Cc1cc(CO)nc(N2CCCCC2)n1
310 | 2720 | 49 (≈ 166 µM) | 0.732 | – | – | Cc1ccccc1-c1nc(Cn2ccnc2C(C)C)c(C)o1
≤ 4.74 | ≤ 10.7 | 42.9 (≈ 212 µM) | 1.05 | – | – | Cc1ccc(-n2cc[nH]c(=O)c2=O)cc1
29 | 173 | – | – | – | – | Cc1c(C(=O)NCCc2cc3nc(-c4ccco4)ccn3n2)cnn1C
≤ 4.74 | 30.1 | – | 113 | – | – | Cc1nc(-c2cccc(-c3ccc(C(=O)NC[C@@H]4CCCN4)cc3)c2)no1
26.7 | 562 | – | 79.1 | – | – | O=C(c1ccc(NS(=O)(=O)c2cccc3cnccc23)cc1)N1CCCC1
32.7 | 67.9 | – | 63.4 | – | – | C=CCn1c(=O)c2cnc(Nc3ccc(N4CCN(C)CC4)cc3)nc2n1-c1cccc(C(C)(C)O)n1
68 | 507 | 26.4 (≈ 81.7 µM) | 1.18 | – | – | Cc1cc(C)c(-n2cccn2)c(-c2cn(C[C@@H]3CCCO3)nn2)c1
≤ 4.74 | 10.9 | – | 93.4 | – | – | O[C@H]1CC[C@H](Nc2ncc3nc(Nc4c(F)cc(F)cc4F)n([C@H]4CCOC4)c3n2)CC1
– | – | – | 0.359 | – | – | O=C(Nc1nc2ccccc2[nH]1)c1ccc(-n2cccc2)cc1
≤ 4.74 | ≤ 10.7 | 42.9 (≈ 143 µM) | – | – | – | C#CCN1CCN(Cc2nc(O)cc(C(F)(F)F)n2)CC1
≤ 4.74 | 53.7 | – | – | – | – | Cc1c(O)cccc1OCCN1CCOCC1
– | – | 0.26 (≈ 0.704 µM) | 0.789 | – | – | Cc1ccc(-c2nc(CN3C(=O)C(=O)N(C4CCCC4)C3=O)cs2)cc1
≤ 4.74 | 85.5 | – | 0.725 | – | – | CC(C)(O)Cn1nc(-c2ccccc2)c2c(Cl)c(-c3ccccc3)nnc21
57.9 | 607 | – | 1.3 | – | – | COc1cccc(C(=O)NCC(=O)Nc2cccc3c2CCCC3)c1
110 | 160 | – | 4.62 | – | – | CC(C)(C)OC(=O)NCCCC(=O)N[C@H]1C[C@@H](n2cnc3c(NCc4ccccc4)ncnc32)[C@@H](O)[C@H]1O
83.8 | 5820 | – | 0.73 | – | – | O=C(CSc1ccc2c(c1)OCCO2)NC1CCCC1
7.73 | 20.8 | 36.1 (≈ 106 µM) | 40.6 | – | – | CC(C)c1noc2nc(C3CC3)cc(C(=O)N3CCN(C)C(=O)C3)c12

intrinsic clearance, human liver microsomes [mL/min/kg] | intrinsic clearance, rat liver microsomes [mL/min/kg] | aqueous solubility [µg/mL] | MDR1-MDCK efflux ratio | fraction unbound, human plasma | fraction unbound, rat plasma | Structure (SMILES)
22.6 | 611 | – | – | – | – | COc1ccc(S(=O)(=O)N2CCC[C@H](C(=O)Nc3cccc4ncccc34)C2)cc1
76.2 | 152 | 65.7 (≈ 149 µM) | 45.4 | – | – | CN(C)Cc1cccc(N/C(=C2\C(=O)Nc3cc(C(=O)N(C)C)ccc32)c2ccccc2)c1
448 | 4750 | – | 7.22 | – | – | CC(C)CN(Cc1cnn(C)c1)C(=O)c1cccc(-c2cnccn2)c1
10.5 | 70.6 | 36.2 (≈ 107 µM) | 9.53 | 0.0736 | 0.0485 | COc1nn(C)cc1C(=O)Nc1cccc(-c2cnc3n2CCC3)c1
13.9 | 146 | 56.3 (≈ 162 µM) | 37.4 | – | – | O=C(c1cccc(CNc2ccc3nccnc3n2)c1)N1CCCCC1
19.9 | 691 | – | 32.1 | – | – | CN(C)CCOc1cc(-c2cn[nH]c2)ccc1NC(=O)C1COc2ccccc2O1 (stereo not drawn)
20.3 | 498 | 46.5 (≈ 181 µM) | 0.924 | – | – | CN(CC(=O)NC1(C#N)CCCC1)c1ccccc1
15 | 430 | 32.6 (≈ 102 µM) | 1.09 | – | – | Cc1nc(CN(C)C(=O)C2c3ccccc3-c3ccccc32)no1
267 | 1090 | – | 12.4 | 0.0394 | 0.0842 | Cc1c(F)cccc1NC(=O)CN1[C@H](Cc2ccccc2)C[C@]2(C)NC(=O)CCC[C@H]12
47.1 | 158 | – | – | – | – | CC(C)c1noc(-c2ccc(N)cc2)n1
≤ 4.74 | 63.6 | – | 91 | – | – | Cc1ncc(CCN2C(=O)NC3(CCCC3)C2=O)s1
44.3 | 552 | – | 0.743 | – | – | CN(CCc1ccncc1)c1ncccc1C#N
7.61 | 22.2 | – | – | – | – | CCCS(=O)(=O)Nc1ccc(F)c(C(=O)c2c[nH]c3ncc(Cl)cc23)c1F
≤ 4.74 | 30.4 | – | 58.2 | – | – | CC(C)n1c(=O)cc(N[C@@H](C)c2ccccc2)[nH]c1=O
≤ 4.74 | ≤ 10.7 | – | – | – | – | CN(C)c1ncncc1NC(=O)c1ccc(C(F)(F)F)nc1
20.9 | 133 | 34.8 (≈ 140 µM) | 0.641 | – | – | O=C(Cc1cccs1)NCc1ccccc1F
– | – | 0.52 (≈ 1.93 µM) | 0.329 | – | – | Cc1cccc2sc(NC(=O)c3cccnc3)nc12
– | – | 0.7 (≈ 2.28 µM) | – | – | – | Cc1cccc(N(C)C(=S)Oc2ccc3ccccc3c2)c1
≤ 4.74 | 291 | 31.8 (≈ 107 µM) | 1.06 | – | – | CCc1cnc(NCc2ccc(CN3CCCC3)cc2)nc1
– | – | 4.18 (≈ 12.6 µM) | – | – | – | Cc1[nH]ncc1-c1nn2c(Cc3ccccc3Cl)nnc2s1
5.26 | ≤ 10.7 | – | 2.63 | – | – | Cc1ccc(OCN2CCCCC2=O)nc1

Structure (SMILES) | intrinsic clearance, human liver microsomes [mL/min/kg] | intrinsic clearance, rat liver microsomes [mL/min/kg] | aqueous solubility [µg/mL] | MDR1-MDCK efflux ratio | fraction unbound, human plasma | fraction unbound, rat plasma
Cc1cc(C)nc(N2Cc3ccccc3C2=N)n1 | 24.6 | 1160 | – | 0.807 | – | –
